Results as given in patent US20030215462A1, “Use of UGT inhibitors to increase bioavailability” (priority 2001, published 2003).
Several values for one entry are separate records, joined by “and”; a condition that tells them apart may be missing. Equal entries are not always repeated.

Columns and labels:
[1] = system: UGT enzymes of human liver microsomes; test: Inhibition of 7-HFC glucuronidation in human liver microsomes; assay type: biochemical; conditions: 7-HFC 50 μM, human liver microsomes 100 μg/ml, 15 min
UGT1A1 = molecular target: T1, UGT1A1 (Homo sapiens, UniProt P22309); test: in vitro
T1 sequence (P22309 26-533): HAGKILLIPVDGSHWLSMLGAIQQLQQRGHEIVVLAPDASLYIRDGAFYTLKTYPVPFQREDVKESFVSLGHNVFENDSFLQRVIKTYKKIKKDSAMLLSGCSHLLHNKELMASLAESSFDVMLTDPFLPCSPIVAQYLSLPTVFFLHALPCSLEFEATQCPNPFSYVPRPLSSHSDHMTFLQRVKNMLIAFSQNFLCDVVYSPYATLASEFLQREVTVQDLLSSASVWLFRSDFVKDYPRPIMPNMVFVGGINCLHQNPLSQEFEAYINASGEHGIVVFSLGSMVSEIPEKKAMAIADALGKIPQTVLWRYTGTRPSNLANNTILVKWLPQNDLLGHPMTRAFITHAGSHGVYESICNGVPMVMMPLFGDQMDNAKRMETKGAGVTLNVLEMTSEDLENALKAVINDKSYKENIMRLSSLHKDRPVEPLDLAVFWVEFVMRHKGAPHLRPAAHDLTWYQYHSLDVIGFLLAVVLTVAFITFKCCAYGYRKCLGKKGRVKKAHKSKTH
Description: (§1) Compounds were eluted using a binary solvent gradient system. Solvent A was water brought to pH 8 with NH4OH. Solvent B was methanol. Solvent flow rate was 1 ml/min and the column temperature was maintained at 50° C. Detection was at 280 nm. […] The system was then returned to the initial conditions and equilibrated for 3 min.

UGT1A3 = molecular target: T2, UGT1A3 (Homo sapiens, UniProt P35503); test: in vitro
T2 sequence (P35503 29-534): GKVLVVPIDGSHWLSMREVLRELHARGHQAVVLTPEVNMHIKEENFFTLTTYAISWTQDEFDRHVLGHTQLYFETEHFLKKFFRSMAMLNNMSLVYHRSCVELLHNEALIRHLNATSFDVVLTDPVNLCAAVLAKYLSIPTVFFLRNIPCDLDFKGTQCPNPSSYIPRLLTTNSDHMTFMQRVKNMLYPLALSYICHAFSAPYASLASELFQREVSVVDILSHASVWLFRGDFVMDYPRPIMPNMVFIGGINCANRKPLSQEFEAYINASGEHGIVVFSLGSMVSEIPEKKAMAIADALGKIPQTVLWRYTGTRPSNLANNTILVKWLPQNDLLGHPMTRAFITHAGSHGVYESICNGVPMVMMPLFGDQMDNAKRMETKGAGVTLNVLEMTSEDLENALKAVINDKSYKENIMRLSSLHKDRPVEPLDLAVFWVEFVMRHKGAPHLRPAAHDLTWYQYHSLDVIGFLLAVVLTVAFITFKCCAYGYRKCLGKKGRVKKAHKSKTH
Description: as §1

UGT1A10 = molecular target: T3, UGT1A10 (Homo sapiens, UniProt Q9HAW8); test: in vitro; conditions: pH 7.5, % of control metabolism
T3 sequence (Q9HAW8 26-530): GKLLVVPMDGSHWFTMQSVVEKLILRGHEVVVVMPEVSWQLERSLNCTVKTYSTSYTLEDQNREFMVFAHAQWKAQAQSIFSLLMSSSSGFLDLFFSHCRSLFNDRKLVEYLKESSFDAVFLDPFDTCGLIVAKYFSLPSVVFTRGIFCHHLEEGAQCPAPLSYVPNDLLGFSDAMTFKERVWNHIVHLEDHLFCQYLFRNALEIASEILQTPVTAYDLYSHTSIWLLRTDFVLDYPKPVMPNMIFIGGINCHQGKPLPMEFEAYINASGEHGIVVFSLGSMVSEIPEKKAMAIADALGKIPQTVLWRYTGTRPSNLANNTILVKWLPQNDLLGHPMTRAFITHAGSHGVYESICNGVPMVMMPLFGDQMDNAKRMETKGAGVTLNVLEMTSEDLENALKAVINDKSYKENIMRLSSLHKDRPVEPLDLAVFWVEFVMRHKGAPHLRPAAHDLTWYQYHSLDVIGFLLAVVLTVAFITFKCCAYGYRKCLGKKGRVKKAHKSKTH
Description: as §1

UGT1A6 = molecular target: T4, UGT1A6 (Homo sapiens, UniProt P19224); test: Substrate glucuronidation by recombinant UGT1A6; conditions: for 7-HFC glucuronidation rate: 7-HFC 50 μM
T4 sequence (P19224 27-532): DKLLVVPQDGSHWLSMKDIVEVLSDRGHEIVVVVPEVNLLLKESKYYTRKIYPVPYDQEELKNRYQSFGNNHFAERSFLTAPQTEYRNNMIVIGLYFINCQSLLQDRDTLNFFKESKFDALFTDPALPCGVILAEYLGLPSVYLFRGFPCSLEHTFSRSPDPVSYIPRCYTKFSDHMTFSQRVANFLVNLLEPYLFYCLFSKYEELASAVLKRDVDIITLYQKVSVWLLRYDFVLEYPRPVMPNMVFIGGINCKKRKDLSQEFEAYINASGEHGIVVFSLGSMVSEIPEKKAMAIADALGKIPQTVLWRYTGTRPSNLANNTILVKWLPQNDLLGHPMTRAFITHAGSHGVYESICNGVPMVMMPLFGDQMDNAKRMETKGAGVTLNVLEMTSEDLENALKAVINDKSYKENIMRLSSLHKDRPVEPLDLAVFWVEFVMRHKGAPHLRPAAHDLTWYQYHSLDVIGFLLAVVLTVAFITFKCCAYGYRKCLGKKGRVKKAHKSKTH

UGT1A4 = UGT1A4 (Homo sapiens, UniProt P22310)
Chain of UGT1A4 (P22310 29-534): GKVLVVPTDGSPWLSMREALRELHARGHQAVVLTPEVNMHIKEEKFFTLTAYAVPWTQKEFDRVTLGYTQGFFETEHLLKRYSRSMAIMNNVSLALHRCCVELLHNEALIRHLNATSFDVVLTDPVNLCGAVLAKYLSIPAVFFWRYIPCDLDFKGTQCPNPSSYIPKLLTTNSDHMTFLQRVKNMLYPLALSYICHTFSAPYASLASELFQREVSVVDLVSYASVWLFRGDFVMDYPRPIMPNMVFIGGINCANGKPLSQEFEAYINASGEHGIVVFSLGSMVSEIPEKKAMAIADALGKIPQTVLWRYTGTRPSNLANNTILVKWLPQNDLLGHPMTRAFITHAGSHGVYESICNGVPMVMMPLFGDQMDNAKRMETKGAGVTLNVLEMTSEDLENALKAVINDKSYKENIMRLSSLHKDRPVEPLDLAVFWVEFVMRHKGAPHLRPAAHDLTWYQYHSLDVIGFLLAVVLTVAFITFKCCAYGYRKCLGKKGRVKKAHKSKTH

[2] = pH 7.5, % of control metabolism, raloxifene G1
[3] = pH 7.5, % of control metabolism, raloxifene G2
[4] = pH 7.5, Inhibition of raloxifene glucuronidation, G1, UGT1A1
[5] = pH 7.5, Inhibition of raloxifene glucuronidation, G2, UGT1A1
[6] = pH 7.5, Inhibition of raloxifene glucuronidation, G1, UGT1A3
[7] = pH 7.5, Inhibition of raloxifene glucuronidation, G2, UGT1A3

activity at 15 min, 50 µM (UGT1A1; [2]) [%]	activity at 15 min, 50 µM (UGT1A1; [3]) [%]	activity at 15 min, 50 µM (UGT1A1; [4]) [%]	activity at 15 min, 50 µM (UGT1A1; [5]) [%]	activity at 15 min, 50 µM (UGT1A3; [2]) [%]	activity at 15 min, 50 µM (UGT1A3; [3]) [%]	activity at 15 min, 50 µM (UGT1A3; [6]) [%]	activity at 15 min, 50 µM (UGT1A3; [7]) [%]	activity at 15 min, 50 µM (UGT1A10; raloxifene G1) [%]	activity at 15 min, 50 µM (UGT1A10; raloxifene G2) [%]	activity at 15 min, 25 µM (UGT1A1; [2]) [%]	activity at 15 min, 25 µM (UGT1A1; [3]) [%]	activity at 15 min, 25 µM (UGT1A1; [4]) [%]	activity at 15 min, 25 µM (UGT1A1; [5]) [%]	SMILES	other results
72	73	72	73	55	56	55	56	80	72					CCCOC(=O)c1cc(O)c(O)c(O)c1 [Propyl gallate]	% of control metabolism (SD, n = 3), 7-HFC glucuronidation ([1]; inhibitor 1000 μM): 46 (1) %; % of control metabolism (SD, n = 3), 7-HFC glucuronidation ([1]; inhibitor 2000 μM): 32 (0) %; activity at 15 min, 25 µM (UGT1A3; [6]): 72%; activity at 15 min, 25 µM (UGT1A3; [7]): 79%
														O=c1cc(C(F)(F)F)c2ccc(O)cc2o1 [7-HFC, 7-hydroxy-4-(trifluoromethyl)coumarin]	7-HFC glucuronidation rate in Panvera Bacculosomes as % of Gentest Supersomes (UGT1A6; UGT1A6): 31%; 7-HFC glucuronidation rate (UGT1A6; UGT1A6 Bacculosomes 250 μg/ml): 1528 ± 34 pmol/min/mg protein; 7-HFC glucuronidation rate (UGT1A6; UGT1A6 Supersomes 250 μg/ml): 4904 ± 368 pmol/min/mg protein
23	25	23	25	57	42	57	42	54	51	39	43	39	43	O=C(O[C@@H]1Cc2c(O)cc(O)cc2O[C@@H]1c1ccc(O)c(O)c1)c1cc(O)c(O)c(O)c1 [Epicatechin gallate]	
														O=C(OC[C@H]1O[C@@H](OC(=O)c2cc(O)c(O)c(OC(=O)c3cc(O)c(O)c(O)c3)c2)[C@H](OC(=O)c2cc(O)c(O)c(OC(=O)c3cc(O)c(O)c(O)c3)c2)[C@@H](OC(=O)c2cc(O)c(O)c(OC(=O)c3cc(O)c(O)c(O)c3)c2)[C@@H]1OC(=O)c1cc(O)c(O)c(OC(=O)c2cc(O)c(O)c(O)c2)c1)c1cc(O)c(O)c(OC(=O)c2cc(O)c(O)c(O)c2)c1 [Tannic acid]	% of control metabolism (SD, n = 3), 7-HFC glucuronidation ([1]; inhibitor 5 μM): 72 (1) %; % of control metabolism (SD, n = 3), 7-HFC glucuronidation ([1]; inhibitor 10 μM): 47 (2), % and 50 (1) %
														CC(CCc1ccccc1)NCC(O)c1ccc(O)c(C(N)=O)c1 (stereo not drawn) [Labetalol, labetalol]	labetalol metabolism, in words (UGT1A4): No detectable metabolism was observed
31	33	31	33	83	81	83	81	90	90	53	53	53	53	O=C(O)c1cc(-c2ccc(F)cc2F)ccc1O [Diflunisal, reference compound]	
														CC/C(=C(/CC)c1ccc(O)cc1)c1ccc(O)cc1 [Diethylstilbestrol, reference compound]	% of control metabolism (SD, n = 3), 7-HFC glucuronidation ([1]; inhibitor 5 μM): 90 (3) %; % of control metabolism (SD, n = 3), 7-HFC glucuronidation ([1]; inhibitor 10 μM): 80 (4) %

SMILES	activity at 15 min, 50 µM (UGT1A1; [2]) [%]	activity at 15 min, 50 µM (UGT1A1; [3]) [%]	activity at 15 min, 50 µM (UGT1A1; [4]) [%]	activity at 15 min, 50 µM (UGT1A1; [5]) [%]	activity at 15 min, 50 µM (UGT1A3; [2]) [%]	activity at 15 min, 50 µM (UGT1A3; [3]) [%]	activity at 15 min, 50 µM (UGT1A3; [6]) [%]	activity at 15 min, 50 µM (UGT1A3; [7]) [%]	activity at 15 min, 50 µM (UGT1A10; raloxifene G1) [%]	activity at 15 min, 50 µM (UGT1A10; raloxifene G2) [%]	activity at 15 min, 25 µM (UGT1A1; [2]) [%]	activity at 15 min, 25 µM (UGT1A1; [3]) [%]	activity at 15 min, 25 µM (UGT1A1; [4]) [%]	activity at 15 min, 25 µM (UGT1A1; [5]) [%]	other results
O=c1c(O)c(-c2ccc(O)c(O)c2)oc2cc(O)cc(O)c12 [Quercetin]	2	3	2	3					55	48	13	13	13	13	activity at 15 min, 10 µM (UGT1A1; [2]): 45%; activity at 15 min, 10 µM (UGT1A1; [3]): 43%; activity at 15 min, 2 μM (UGT1A1; [4]): 89%; activity at 15 min, 5 µM (UGT1A1; [4]): 71%; activity at 15 min, 2 μM (UGT1A1; [5]): 90%; activity at 15 min, 5 µM (UGT1A1; [5]): 70%; activity at 15 min, 25 µM (UGT1A10; raloxifene G1): 80%; activity at 15 min, 25 µM (UGT1A10; raloxifene G2): 80%
C=CCc1ccc(O)c(OC)c1 [Eugenol]					89	85	89	85	85	81					activity at 15 min, 50 µM (UGT1A1; pH 7.5, % of control metabolism, raloxifene G1, UGT1A1, inhibitor 50 μM): 85%; activity at 15 min, 50 µM (UGT1A1; pH 7.5, % of control metabolism, raloxifene G2, UGT1A1, inhibitor 50 μM): 79%; activity at 15 min, 50 µM (UGT1A1; pH 7.5, Inhibition of raloxifene glucuronidation, G1, UGT1A1, G1, inhibitor 50 μM, raloxifene 50 μM, 250 μg/ml Supersomes, 1 mM UDPGA, 15 min): 85%; activity at 15 min, 50 µM (UGT1A1; pH 7.5, Inhibition of raloxifene glucuronidation, G2, UGT1A1, G2, inhibitor 50 μM, raloxifene 50 μM, 250 μg/ml Supersomes, 1 mM UDPGA, 15 min): 79%
